Assay results: publication PMC8677648, “A robotic pill for oral delivery of biotherapeutics: safety, tolerability, and performance in healthy subjects” (Drug Delivery and Translational Research, 2021)

Assays:
[1] = Study 1: pharmacokinetics of octreotide delivered via RP or IV injection (plasma LC/MS/MS); conditions: human, in vivo, 100 ug
Procedure: This was a single-center, open-label study.
Fluoroscopic imaging was performed with Siemens AXIOM Artis dMP using standard abdominal protocol.
Serial blood samples for PK analysis were collected immediately before the injection and at 5, 10, 15, 20, 25, 30, 40, 50, 60, 90, 120, 150, 180, and 240 min after dosing.
Blood samples were collected into potassium-EDTA treated lavender top tubes, plasma was separated via centrifugation and aliquots stored at −80℃ until analyzed. […] The analysis was performed using an API 5000 mass spectrometer from Applied Biosystems.
MS Excel (2016) and GraphPad (Version 8.4.3) were used for data analysis. Categorical data are expressed as counts and percentages, and continuous data as mean ± standard deviation (SD) or standard error (SE), as indicated. PK parameters were calculated using noncompartmental analysis (NCA) implemented within a validated installation of Phoenix® WinNonlin. The Cmax (peak plasma concentration) and Tmax (time to reach Cmax) were obtained graphically from the concentration vs. time profiles. Unpaired t tests were used to determine differences between groups with a p value of 0.05 or less deemed as significant.

[2] = in vivo, cited from earlier work
Procedure: For example, subjects need to take oral semaglutide at least 30 min before the first food, beverage, or other or ...

C[C@@H](O)[C@@H]1NC(=O)[C@H](CCCCN)NC(=O)[C@@H](Cc2c[nH]c3ccccc23)NC(=O)[C@H](Cc2ccccc2)NC(=O)[C@@H](NC(=O)[C@H](N)Cc2ccccc2)CSSC[C@@H](C(=O)N[C@H](CO)[C@@H](C)O)NC1=O [octreotide]
Cmax [1]: 11.1 ng/mL
Tmax [1]: 5 min

semaglutide
bioavailability ([2]; po): ~ 1%
half-life [2]: 170 h
